Our source for the GI50 and melting point values is PMC10303900, “Discovery of a New Chalcone-Trimethoxycinnamide Hybrid with Antimitotic Effect: Design, Synthesis, and Structure—Activity Relationship Studies” (Pharmaceuticals, 2023).

Read-outs that look alike come from different tables or passages of the source.

The test system of one series is HCT116 (HCT116 p53+/+). As to the kind of experiment: SRB growth inhibition assay, colorectal carcinoma cells. Format: cell-based. The note with it: Homo sapiens, HCT-116. The method, then:
(§1) A sulforhodamine B (SRB) assay was performed to evaluate the in vitro growth inhibitory activity of all synthesized hybrids, as well as intermediates in the human tumor cell lines of melanoma (A375-C5), breast adenocarcinoma (MCF-7), and colorectal carcinoma (HCT116), as well as on the non-tumor Human Pulmonary Alveolar Epithelial cell line (HPAEpiC). The concentration inducing 50% cell growth inhibition (GI50), was calculated. […] The overall results prompt us to further investigate the mechanism behind the cytotoxic activities of compounds 6, 7, and 13 in colorectal tumor cells. Moreover, in silico studies were performed, aiming to screen for drug-likeness.
(§2) A375-C5 (melanoma) and MCF-7 (breast adenocarcinoma) cell lines were obtained from the European Collection of Cell Culture, UK, and were grown in RPMI-1640 medium (Roswell Park Memorial Institute, Biochrom, Cambridge, UK) with 5% inactivated FBS (fetal bovine serum, Biochrom). HCT-116 (colon adenocarcinoma) cells were grown in DMEM medium (Dulbecco’s Modified Eagle’s, Biochrom) with 5% inactivated FBS. The non-tumor human pulmonary alveolar epithelial cells (HPAEpiC) were obtained from ScienCell Research Laboratories and grown in DMEM medium supplemented with 10% FBS and 1% non-essential amino acids (Sigma-Aldrich Co., Saint Louis, MO, USA). All cell lines were maintained in a humidified incubator (Hera Cell, Heraeus, Hanau, Germany) at 37 °C and with 5% CO2, and cell viability was regularly monitored using the exclusion trypan blue dye.
(§3) A total of 5.0 × 10^4 A375-C5, MCF-7, and HCT-116 cells, or 6.0 × 10^4 HPAEpiC cells were seeded in 96-well plates and incubated at 37 °C and 5% CO2 to allow for cell attachment. After 24 h, cells were treated with two-fold serial dilutions of test compounds (0–150 µM), or with DMSO as the compound solvent. In parallel, cells in a time-zero (T0) plate, without treatment, were fixed with 50% (m/v) trichloroacetic acid (TCA, Merck Millipore, Darmstadt, Germany), for 1 h at 4 °C, and then washed with distilled water and left to dry. Forty-eight hours after compound treatment, cells were fixed with 50% TCA and stained with SRB (Sigma-Aldrich Co., Ltd., Gillingham, UK) for 30 min at room temperature, followed by 5 rounds of washing with 1% (v/v) acetic acid (Merck Milli-pore, Darmstadt, Germany). SRB–protein complexes were then solubilized with […] Tris buffer (Sigma-Aldrich Co., Ltd., Gillingham, UK) for 30 min, and the absorbance was measured at 515 nm in a microplate reader (Biotek Synergy 2, BioTek Instruments, Inc., Winooski, VT, USA). A dose-response curve was obtained for each cell line, and the concentration that caused 50% cell growth inhibition (GI50) was calculated.

For the next series, the system named is A375-C5. As to the kind of experiment: Sulforhodamine B (SRB) growth inhibition assay, melanoma cells. The class given is cell-based. The note with it: Homo sapiens, 48 h. On the procedure:
as §1, §2, §3

For a further series, the system named is MCF-7. As to the kind of experiment: SRB growth inhibition assay, breast adenocarcinoma cells. The note with it: Homo sapiens, MCF7, 48 h. The class given is cell-based. On the procedure:
as §1, §2, §3

The test system of a further series is HPAEpiC. Description: SRB growth inhibition assay, non-tumor pulmonary alveolar epithelial cells. Format: cell-based. The note with it: Homo sapiens, Epithelial cell, 48 h. On the procedure: as §1, §2, §3
In series [1] the test system is A375-C5, MCF-7 and HCT116 cell lines. As to the kind of experiment: SRB growth inhibition, range over the tumor cell lines of Table 1. Format: cell-based. The conditions noted are these: Homo sapiens; SAR discussion, values of Table 1. The method, then: Considering the antiproliferative effects on tumor cells of all the studied compounds (Table 1), some SAR considerations may be undertaken (Figure 2). […] Nevertheless, this effect is not observed for the flavone derivatives 15 and 16. […] Additionally, with the screening of the synthetic intermediates, some conclusions can also be inferred (Figure 2).
as §3

The mark [2] stands for this setting: SRB, 48 h, read-out: GI50 HCT116.

Consider `COc1cc([C@@H]2c3cc4c(cc3[C@@H](O[C@@H]3O[C@@H]5CO[C@@H](C)O[C@H]5[C@H](O)[C@H]3O)[C@H]3COC(=O)[C@H]23)OCO4)cc(OC)c1O` [Etoposide, reference compound], for which the GI50 in the series with HCT116 (HCT116 p53+/+) (Table 2, 48 h, read-out: GI50 HCT116 p53+/+) was determined as 0.71 µM.

As usually defined, the melting point is the temperature, or range, at which the solid turns liquid. `CCCc1c(OCCNC(=O)OC(C)(C)C)ccc2c(=O)cc(-c3cc(OC)c(OC)c(OC)c3)oc12` [Compound 14, tert-butyl (2-((4-oxo-8-propyl-2-(3,4,5-trimethoxyphenyl)-4H-chromen-7-yl)oxy)ethyl)carbamate] returned a melting point of 191 to 193 °C. Further, the GI50 in the series on A375-C5 was more than 75 µM. The GI50 with MCF-7 is more than 75 µM. In addition, the GI50 in the series with HCT116 (HCT116 p53+/+) (setting [2]) was more than 75 µM. Further, the GI50 in the series with HPAEpiC was more than 75 µM.

The molecule `CCCc1c(OCCNC(=O)/C=C/c2cc(OC)c(OC)c(OC)c2)ccc2c(=O)cc(-c3cc(OC)c(OC)c(OC)c3)oc12` [Compound 15, (E)-N-(2-((4-oxo-8-propyl-2-(3,4,5-trimethoxyphenyl)-4H-chromen-7-yl)oxy)ethyl)-3-(3,4,5-trimethoxyphenyl)acrylamide] yielded a melting point of 198 to 199 °C. For the same molecule, the GI50 in the series on A375-C5 is more than 75 µM. Further, the GI50 in the series with MCF-7 is more than 75 µM. In the series on HCT116 (HCT116 p53+/+) (setting [2]), the GI50 is more than 75 µM. Besides, the GI50 in the series with HPAEpiC was more than 75 µM.

The molecule `CCCc1c(OCC(=O)O)ccc(C(=O)/C=C/c2cc(OC)c(OC)c(OC)c2)c1OCC(=O)O` [Compound 12, (E)-2,2’-((2-propyl-4-(3-(3,4,5-trimethoxyphenyl)acryloyl)-1,3-phenylene)bis(oxy))diacetic acid] returned a melting point of 212 to 214 °C. Besides, in the series with A375-C5, the GI50 is more than 75 µM. In addition, the GI50 with MCF-7 is more than 75 µM. Further, the GI50 with HCT116 (HCT116 p53+/+) (setting [2]) was more than 75 µM. Also, the GI50 in the series on HPAEpiC was more than 75 µM. Moreover, the GI50 in series [1] was more than 75 µM.

Turning to `CCCc1c(OCC(=O)Nc2cc(OC)c(OC)c(OC)c2)ccc2c(=O)cc(-c3cc(OC)c(OC)c(OC)c3)oc12` [Compound 17, 2-((4-oxo-8-Propyl-2-(3,4,5-trimethoxyphenyl)-4H-chromen-7-yl)oxy)-N-(3,4,5-trimethoxyphenyl)acetamide], the melting point fell in the range of 195 to 197 °C. The GI50 in the series with A375-C5 was more than 75 µM. In the series with MCF-7, the GI50 is more than 75 µM. Also, the GI50 in the series with HCT116 (HCT116 p53+/+) (setting [2]) is 24.7 ± 3.04 µM. Besides, the GI50 in the series on HPAEpiC was more than 75 µM.

As for `CCCc1c(OCC(=O)O)ccc(C(=O)/C=C/c2cc(OC)c(OC)c(OC)c2)c1O` [Compound 11, (E)-2-(3-hydroxy-2-propyl-4-(3-(3,4,5-trimethoxyphenyl)acryloyl)phenoxy)acetic acid], the melting point was 200 to 202 °C. Besides, the GI50 with A375-C5 was 29.4 ± 1.05 µM. The GI50 in the series on MCF-7 was 58.3 ± 8.37 µM. Besides, in the series on HCT116 (HCT116 p53+/+) (setting [2]), the GI50 was found to be 26.9 ± 1.6 µM. In addition, the GI50 with HPAEpiC was more than 75 µM. Besides, the GI50 in series [1] lay within 26.9 to 58.3 µM.

In the case of `CCCc1c(OCC(=O)O)ccc2c(=O)cc(-c3cc(OC)c(OC)c(OC)c3)oc12` [Compound 18, 2-((4-oxo-8-propyl-2-(3,4,5-trimethoxyphenyl)-4H-chromen-7-yl)oxy)acetic acid], the GI50 in the series with A375-C5, in the series with MCF-7, in the series with HCT116 (HCT116 p53+/+) (setting [2]) and in the series on HPAEpiC was more than 75 µM each time.

For `COc1cccc2c1C(=O)c1c(O)c3c(c(O)c1C2=O)C[C@@](O)(C(=O)CO)C[C@@H]3O[C@H]1C[C@H](N)[C@H](O)[C@H](C)O1` [Doxorubicin, reference compound], the GI50 in the series with A375-C5 is 0.028 ± 0.002 µM; with MCF-7 it was 0.083 ± 0.003 µM; with HCT116 (HCT116 p53+/+) (setting [2]), 0.085 ± 0.008 µM; in the series on HPAEpiC, 0.091 ± 0.013 µM.

In the case of `CCCc1c(OCCNC(=O)c2cc(OC)c(OC)c(OC)c2)ccc2c(=O)cc(-c3cc(OC)c(OC)c(OC)c3)oc12` [Compound 16, 3,4,5-trimethoxy-N-(2-((4-oxo-8-propyl-2-(3,4,5-trimethoxyphenyl)-4H-chromen-7-yl)oxy)ethyl)benzamide], the melting point fell in the range of 196 to 199 °C. The GI50 with A375-C5 is more than 75 µM. Besides, in the series on MCF-7, the GI50 was more than 75 µM. For the same molecule, in the series on HCT116 (HCT116 p53+/+) (setting [2]), the GI50 was found to be 28.6 ± 5.05 µM. The GI50 in the series on HPAEpiC was more than 75 µM.

As for `CCCc1c(OCCNC(=O)c2cc(OC)c(OC)c(OC)c2)ccc(C(=O)/C=C/c2cc(OC)c(OC)c(OC)c2)c1O` [Compound 8, (E)-N-(2-(3-hydroxy-2-propyl-4-(3-(3,4,5-trimethoxyphenyl)acryloyl)phenoxy)ethyl)-3,4,5-trimethoxybenzamide], the melting point was 201 to 203 °C. In the series with A375-C5, the GI50 was more than 75 µM. Moreover, in the series on MCF-7, the GI50 is more than 75 µM. Further, the GI50 in the series with HCT116 (HCT116 p53+/+) (setting [2]) was 13.5 ± 2.46 µM. In addition, the GI50 with HPAEpiC is more than 75 µM.
